From US7671176B2, “Opiate receptor polypeptide” (The Research Foundation of SUNY, priority 2001, dated 2010) come the findings set out here.

Each structure is given as a SMILES string.

The test system of the assay is mu4 opiate receptor mRNA in mononuclear cells. The experiment in a line: Real-time RT-PCR of mu4 mRNA expression in treated human mononuclear cells. As to conditions: SNAP 1 μM. It is filed as cell-based. For orientation: Quantitative PCR measures a nucleic acid by following its amplification.

Protocol: Human heparinized whole blood cells obtained from volunteer blood donors (Long Island Blood Services; Melville, N.Y.) were immediately separated using the 1-Step Polymorphs (Accurate Chemical and Scientific Corporation, Westbury, N.Y.) gradient medium. Five mL of the heparinized blood was layered over 3.5 mL of polymorphs in a 14 mL round-bottom tube and centrifuged for 35 minutes at 500×g in a swinging-bucket rotor at 18° C. […] In addition, residual red blood cells were lysed using ACK lysing buffer (Current Protocol in Immunology). […] The cells were then treated with SNAP (1 μM), SNAP plus superoxide dismutase (SOD; 100 units/mL) (SIGMA St. Louis, Mo.), or SOD (100 U/mL), respectively.
After incubation, mononuclear cells were pelleted by centrifugation, and total RNA was isolated with the RNeasy Protect Mini Kit (Qiagen, Stanford, Calif.) following the directions supplied by the manufacturer. RNA was eluted with 50 μL of RNase-free water.
First strand cDNA synthesis was performed using random hexamers (GIBCO, BRL, Gaithesburg, Md.). 3 μg of total RNA isolated from human mononuclear cells were denatured at 95° C. and reverse transcribed at 40° C. for 1 hour using Superscript® II Rnase H-RT (GIBCO BRL, Gaithesburg Md.). Five μL of the RT product was used for the real-time PCR reaction.
Primers and probe specific for the mu4 opiate receptor sequence were designed as follows using the software Primer Express® (Applied Biosystems). […] The Taqman® probe was constructed with the 5′ reporter dye 6-carboxyfluorescein and a 3′ quencher dye 6-carboxy-tetramethyl-rhodoamine. The 2× universal master mix (Applied Biosystems) containing PCR buffer, MgCl2, dNTPs, and the thermal stable AmpliTaq Gold® DNA polymerase was used in the PCR reactions. In addition, 200 μM of reverse and forward primers, 100 μM Taqman® probe, 5 μL of RT product, and Rnase/DNase-free water were added to the master mix to a final volume of 50 μL. […] The PCR results were analyzed with the GeneAmp® 5700 SDS software (Applied Biosystems). […]

As to `CC(=O)NC(C(=O)O)C(C)(C)SN=O` (racemic) [SNAP, S-nitroso-N-acetyl-DL-penicillamine], the “mu4 mRNA expression” value was 8±5.6 relative mRNA level (after 6 hours of treatment, p=0.029 vs control); 10.5 relative mRNA level (after 24 hours of treatment, n=1); 0.05 relative mRNA level (treated for 30 minutes, SOD 100 units/mL, nontreated cells 1.0).
